From article PMC9960553, ““Dual Anta-Inhibitors” of the A2A Adenosine Receptor and Casein Kinase CK1delta: Synthesis, Biological Evaluation, and Molecular Modeling Studies” (Pharmaceuticals, 2023)
Where two headings read alike, the source gives them in different places.

Experiments:
[1] = test system: CDK5; set-up: method as in PMID 18698753, PMID 29289448; conditions: cited from earlier work
[2] = test system: CK1δ/ε; conditions: read-out: IC50 as CK1δ/ε inhibitor; cited from earlier work
[3] = biological target: T1, human recombinant A2AAR (Homo sapiens, UniProt P29274); conditions: read-out: KiA2AAR; cited from earlier work
T1 construct: expressed in transfected cells; host or cells: CHO cells (membranes)
T1 sequence (P29274 whole entry): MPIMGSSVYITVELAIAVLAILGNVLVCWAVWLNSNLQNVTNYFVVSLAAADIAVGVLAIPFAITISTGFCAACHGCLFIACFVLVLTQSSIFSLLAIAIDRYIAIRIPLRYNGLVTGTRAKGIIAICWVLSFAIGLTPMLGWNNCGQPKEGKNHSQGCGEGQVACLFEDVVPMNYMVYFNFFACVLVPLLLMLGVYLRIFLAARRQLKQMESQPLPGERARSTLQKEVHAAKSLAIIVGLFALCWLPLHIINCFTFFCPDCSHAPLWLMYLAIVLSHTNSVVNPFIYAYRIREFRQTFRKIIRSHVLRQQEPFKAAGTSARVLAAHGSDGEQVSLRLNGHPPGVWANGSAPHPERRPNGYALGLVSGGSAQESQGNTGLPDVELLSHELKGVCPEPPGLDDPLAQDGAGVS

[4] = biological target: T2, truncated CK1δ (Homo sapiens, UniProt P48730); assay: CK1δ luminescent kinase assay (Kinase-Glo); format: biochemical; conditions: for remaining activity at 10 µM / remaining activity at 40 µM: CK1δ residual activity; for remaining activity at 10 µM: compound at 10 μM, read-out: % Residual Activity at 10 μM ± sd; for remaining activity at 40 µM: compound at 40 μM, read-out: % Residual Activity at 40 μM ± sd; for IC50: truncated CK1δ, ATP 2 μM, read-out: IC50 (μM), CK1δ inhibition
T2 construct: recombinant human, GST-tagged, aa 1-294; GST; purchased Merck Millipore, Merck KGaA, Darmstadt, Germany
T2 sequence (P48730 1-294): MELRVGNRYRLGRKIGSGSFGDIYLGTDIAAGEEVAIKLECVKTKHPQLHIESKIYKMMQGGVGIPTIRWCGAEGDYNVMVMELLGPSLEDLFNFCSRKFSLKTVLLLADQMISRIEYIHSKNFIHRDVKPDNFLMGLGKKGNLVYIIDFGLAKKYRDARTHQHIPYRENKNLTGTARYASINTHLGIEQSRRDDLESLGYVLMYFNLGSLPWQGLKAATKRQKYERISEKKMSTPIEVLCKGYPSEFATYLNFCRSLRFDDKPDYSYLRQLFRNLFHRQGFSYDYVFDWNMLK
Description: Luminescent assays were performed in white 96-well plates in a 40 μL final volume with buffer containing 50 mM HEPES (pH 7.5), 1 mM EDTA, 1 mM EGTA, and 15 mM MgCl2. In a typical assay, 10 μL of inhibitor solution (desired concentrations were obtained by diluting a starting 10 mM solution in DMSO) and 10 μL of enzyme solution were added to the well, followed by 20 μL of assay buffer containing casein substrate (Sigma-Aldrich, Merck KGaA, Darmstadt, Germany, casein solution from bovine milk, 5% in water) and ATP, at a final concentration of 0.05% and 2 μM, respectively. […] After 60 min of incubation at 30 °C, the enzymatic reactions were stopped with the addition of 40 μL of KinaseGlo reagent. […] Data were analyzed using Excel and GraphPad Prism software (version 8.0).

[5] = biological target: T3, human recombinant A1AR (Homo sapiens, UniProt P30542); assay: [3H]CCPA displacement binding in CHO cell membranes; conditions: mean ± standard error, read-out: KiA1
T3 construct: expressed in transfected cells; host or cells: CHO cells (membranes)
T3 sequence (P30542 1-326): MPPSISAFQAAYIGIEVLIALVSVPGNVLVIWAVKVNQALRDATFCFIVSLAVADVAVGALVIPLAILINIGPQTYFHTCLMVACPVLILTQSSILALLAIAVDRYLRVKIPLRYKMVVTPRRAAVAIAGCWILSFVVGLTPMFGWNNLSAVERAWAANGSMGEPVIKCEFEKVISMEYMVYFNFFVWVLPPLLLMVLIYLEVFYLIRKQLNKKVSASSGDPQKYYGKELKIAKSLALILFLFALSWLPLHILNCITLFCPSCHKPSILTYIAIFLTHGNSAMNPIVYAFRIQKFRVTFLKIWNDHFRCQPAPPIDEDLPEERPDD
Description: (§1) Compounds 5, 6, 8–12, 15–21, and 23–25 were evaluated in binding studies at human recombinant A1, A2A, and A3 ARs, stably transfected in Chinese hamster ovary (CHO) cells. [^3H]CCPA (2-chloro-N^6-cyclopentylAdo), [^3H]NECA (5’-N-ethylcarboxamidoAdo), and [^3H]HEMADO (2-hexynyl-N^6-methylAdo) were used as the, respective, radioligands. All compounds were also tested at the A2BARs by inhibition of NECA-stimulated adenylyl cyclase activity, using the GloSensor cAMP assay, but none of them were active at a concentration up to 30 μM [35]. The results, together with the data of the reference adenine derivative 1, are reported in Table 2 as Ki values in μM (± standard errors). In the table, the IC50 values (μM) of the CK1δ inhibitory activity are also indicated. […] We called the compounds endowed with receptor antagonist behavior combined with an enzyme inhibitory activity “dual anta-inhibitors”.
(§2) All of the pharmacological methods followed the procedures as described earlier. In brief, the membranes for radioligand binding were prepared from CHO cells stably transfected with human adenosine receptor subtypes through two centrifugations at different speeds. The first low-speed […] centrifugation allowed for the removal of cell fragments and nuclei, while the second, performed at high speed (100,000× g), allowed for the precipitation of the crude membrane fractions. The resulting membrane pellet was resuspended in the buffer used for the respective binding experiments, frozen in liquid nitrogen, and stored in aliquots at −80 °C.
(§3) The binding affinity of the novel compounds was evaluated using radioligand competition experiments in CHO cells stably expressing hA1AR, hA2AAR, hA3AR subtypes, as early described. Results were expressed as Ki values (dissociation constants), which were calculated with the program GraphPad (GraphPad Software, San Diego, CA, USA). Each concentration was tested three–five times in duplicate and the values given as the mean ± standard error (S.E.). The potency of compounds at the hA2BAR (expressed on CHO cells) was determined through a GloSensor cAMP Assay.

[6] = biological target: T1, human recombinant A2AAR; assay: [3H]NECA displacement binding in CHO cell membranes; conditions: mean ± standard error, read-out: KiA2A
Description: as §1, §2, §3

[7] = biological target: T4, hA2AAR (Homo sapiens, UniProt P29274); assay: Antagonism of NECA-induced cAMP accumulation in CHO cells, GloSensor cAMP assay; format: cell-based; conditions: CHO cells stably expressing hA2AAR; read-out: IC50, inhibition of NECA effect on cAMP production
T4 construct: expressed in transfected cells; host or cells: CHO cells stably expressing hA2AAR and pGloSensor-22F
T4 sequence (P29274 whole entry): as the sequence (P29274 whole entry) above
Description: In order to confirm the antagonist activity of the dual anta-inhibitors 12 and 17, they were evaluated in a functional assay in CHO cells stably expressing the hA2AAR. Firstly, they were tested alone, and […] in terms of cAMP stimulation was observed. […] Both 12 and 17 were able to inhibit the effect of NECA on cAMP production, thus resulting in A2AAR antagonists.
Functional activity was determined as described earlier. Briefly, cells stably expressing both the hA2A or hA2B AR and the plasmid pGloSensor-22F coding for the biosensor were cultured. This biosensor encodes for a genetically modified form of firefly luciferase into which a cAMP-binding protein moiety was inserted. The desiderate cell number was harvested and incubated for 2 h at r.t., with 3% v/v GloSensor cAMP reagent stock solution, 10% FBS, and 87% CO2 independent medium. Cells were dispensed in the wells of a 384-well plate and the reference agonist NECA or the under-study compounds were added at different concentrations. Since the compounds were unable to stimulate cAMP production, they were studied as antagonists. The antagonist profile was evaluated by assessing the ability to counteract an NECA-induced increase in cAMP accumulation. Responses were expressed as a percentage of the maximal relative luminescence units (RLU). Concentration–response curves were fitted by a nonlinear regression using Prism software. […]

[8] = biological target: T5, human recombinant A3AR (Homo sapiens, UniProt P0DMS8); assay: [3H]HEMADO displacement binding in CHO cell membranes; conditions: mean ± standard error, read-out: KiA3
T5 construct: expressed in transfected cells; host or cells: CHO cells (membranes)
T5 sequence (P0DMS8 1-318): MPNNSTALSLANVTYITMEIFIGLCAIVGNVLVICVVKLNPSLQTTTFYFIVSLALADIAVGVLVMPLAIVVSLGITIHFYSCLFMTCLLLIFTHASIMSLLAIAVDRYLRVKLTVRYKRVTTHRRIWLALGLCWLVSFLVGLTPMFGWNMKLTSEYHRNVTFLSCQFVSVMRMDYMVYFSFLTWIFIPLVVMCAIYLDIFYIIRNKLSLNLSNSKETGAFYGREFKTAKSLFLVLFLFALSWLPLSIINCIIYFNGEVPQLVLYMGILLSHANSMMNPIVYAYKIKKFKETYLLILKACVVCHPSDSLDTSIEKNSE
Description: as §1, §2, §3

[9] = test system: CK1δ; conditions: cited from earlier work
[10] = test system: CK1ε; conditions: cited from earlier work

Row | Structure (SMILES) | IC50 [2] [nM] | remaining activity at 10 µM [4] [%] | remaining activity at 40 µM [4] [%] | IC50 [4] [µM] | Ki [5] [nM] | Ki [6] [nM] | IC50 [7] [nM] | Ki [8] [nM] | further results
1 | CC[C@H](CO)Nc1nc(Nc2ccc(-c3cccnc3)cc2)c2ncn(C(C)C)c2n1 [(R)-DRF053] | 14 | – | – | – | – | – | – | – | IC50 [1]: 80 nM
2 | CCn1cnc2c(N)nc(Cl)nc21 [Compound 3] | – | 71 | 41 | > 10 | – | – | – | – | Ki [3]: 3000 nM
3 | CN(C)c1nc(N)c2ncn(C3CCCC3)c2n1 [Compound 12, 9-Cyclopentyl-N^2,N^2-dimethyl-9H-purine-2,6-diamine] | – | 27 ± 4 | 19 ± 9.4 | 1.75 ± 0.2 | 3340 ± 658 | 123 ± 2 | 418 ± 98 | 2880 ± 695 | –
4 | CN(C)c1nc(NCc2nc3ccccc3[nH]2)c2ncn(C3CCCC3)c2n1 [Compound 17, N^6-((1H-benzo[d]imidazol-2-yl)methyl)-9-cyclopentyl-N^2,N^2-dimethyl-9H-purine-2,6-diamine] | – | 34 ± 5 | 22 ± 1 | 0.59 ± 0.2 | 2900 ± 648 | 76 ± 17 | 69 ± 18 | 1150 ± 107 | –
5 | Fc1cccc(-n2cnc3c(NCc4nc5ccc(Cl)cc5[nH]4)nc(N4CCNCC4)nc32)c1 [SR-2890] | 4 | – | – | – | – | – | – | – | –
6 | c1ccc2[nH]c(CNc3nc(N4CCOCC4)nc4c3ncn4-c3ccsc3)nc2c1 [SR-653234] | – | – | – | – | – | – | – | – | IC50 [9]: 160 nM; IC50 [10]: 540 nM
